Experimental data taken from patent US8546395B2, “6-cycloamino-3-(1H-pyrrolo[2,3-b]pyridin-4-yl)imidazo[1,2-b]pyridazine derivatives, preparation thereof and therapeutic use thereof” (Sanofi, priority 2008, dated 2013).

Molecular target: T1, casein kinase 1 epsilon (CK1 epsilon) (Homo sapiens, UniProt P49674)
T1 construct: Invitrogen Corporation (as an alternative)
Assay: Filter-plate assay of ATP-33P for CK1 epsilon inhibitors (phosphorylation of casein)
Assay type: biochemical
Settings: casein substrate, ATP-33P with 10 μM cold ATP, 2 hours at ambient temperature
Method: The capacity of the compounds of the invention to inhibit the phosphorylation of casein by casein kinase 1 epsilon and delta may be evaluated according to the procedure described in US 2005/0131012.
Filter-Plate Assay of ATP-^33P for the Screening of CK1 Epsilon Inhibitors:
The effect of the compounds on inhibition of the phosphorylation of casein by the enzyme casein kinase 1 epsilon (CK1 epsilon) is measured, using a casein assay with filtration of ATP-^33P in vitro.
Casein kinase 1 epsilon (0.58 mg/ml) is obtained via fermentation and purification processes performed according to methods that are well known to those skilled in the art, or may also be obtained from Invitrogen Corporation™ (human CK1 epsilon).
The compounds are tested at five different concentrations so as to generate IC50 values, i.e. the concentration at which a compound is capable of inhibiting the enzymatic activity by 50%, or alternatively the percentage of inhibition at a concentration of 10 micromolar.
“U”-bottomed Falcon plates are prepared by placing 5 μL of solutions of the compounds according to the invention at concentrations of 10, 1, 0.1, 0.01 or 0.001 μM in various wells. The solutions of the compounds according to the invention at these various concentrations are prepared by diluting in a test buffer (50 mM Tris, pH 7.5, […], 2 mM DTT and 1 mM EGTA) a stock solution in DMSO at a concentration of 10 mM. Next, 5 μL of dephosphorylated casein are added to a final concentration of 0.2 μg/μL, 20 μl of CK1 epsilon to a final concentration of 3 ng/μl, and 20 μl of ATP-^33P to a final concentration of 0.02 μCi/μl mixed with cold ATP (10 μM final—approximately 2×10^6 CPM per well). The final total test volume per well is equal to 50 μl.
The “U”-bottomed Falcon® test plate mentioned above is vortexed, and then incubated at ambient temperature for 2 hours. After 2 hours, the reaction is stopped by adding an ice-cold solution of 65 μl of ATP (2 mM) prepared in test buffer.
100 μl of the reaction mixture are then transferred from the “U”-bottomed Falcon® plate into Millipore® MAPH filter plates, preimpregnated with 25 μl of ice-cold 100% TCA. […]
The plates are left to dry overnight at ambient temperature. […] The radiation emitted by each well is then measured for 2 minutes in a Packard® Topcount NXT scintillation counter, in which the values of CPM/well are measured.
The percentage inhibition of the capacity of the enzyme to phosphorylate the substrate (casein) is determined for each concentration of compound tested. These inhibition data expressed as percentages are used to calculate the IC50 value for each compound compared with the controls.
The kinetic studies determined the KM value for ATP as being 21 μM in this test system.

T1 sequence (P49674 whole entry): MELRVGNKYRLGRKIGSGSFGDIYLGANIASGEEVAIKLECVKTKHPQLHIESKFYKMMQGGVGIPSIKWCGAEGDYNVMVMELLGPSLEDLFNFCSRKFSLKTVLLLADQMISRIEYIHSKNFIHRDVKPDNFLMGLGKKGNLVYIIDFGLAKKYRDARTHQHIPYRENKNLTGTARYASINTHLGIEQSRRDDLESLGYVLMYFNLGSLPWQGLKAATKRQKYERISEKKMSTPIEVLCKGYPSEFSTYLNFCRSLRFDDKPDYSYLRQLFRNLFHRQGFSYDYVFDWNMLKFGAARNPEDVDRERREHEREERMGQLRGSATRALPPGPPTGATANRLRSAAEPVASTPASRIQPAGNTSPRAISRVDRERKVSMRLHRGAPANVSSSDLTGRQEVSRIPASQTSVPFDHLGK

- IC50: 5 to 8 nM
Compound: Fc1ccc(-c2nc3ccc(N4CCC(N5CCCC5)CC4)nn3c2-c2ccnc3[nH]ccc23)cc1 [Compound 36, 2-(4-Fluorophenyl)-6-(4-pyrrolidin-1-ylpiperidin-1-yl)-3-(1H-pyrrolo[2,3-b]pyridin-4-yl)imidazo[1,2-b]pyridazine]
